ChEMBL document CHEMBL1144623, “Sesterterpene sulfates as isocitrate lyase inhibitors from tropical sponge Hippospongia sp” (Bioorg Med Chem Lett, 2007)
pIC50: −log10 of the molar value.

Key:
[1] = test system: Pyricularia grisea; experiment: Reduction of appressorium formation in wild type Magnaporthe grisea Guy 11 after 14 hrs; format: functional, organism-based
[2] = test system: Pyricularia grisea; experiment: Growth inhibition of Magnaporthe grisea Guy 11 in presence of glucose after 6 days; format: functional; settings: Guy 11, 144 h
[3] = Inhibition of Magnaporthe grisea Guy 11 malate synthase; set-up: species or system Pyricularia grisea
[4] = test system: Pyricularia grisea; experiment: Growth inhibition of Magnaporthe grisea Guy 11 in presence of sodium acetate after 6 days; format: functional; settings: Guy 11, 144 h
[5] = molecular target: Isocitrate lyase (Magnaporthe oryzae (strain 70-15 / FGSC 8958) (Rice blast fungus)(Pyricularia oryzae), UniProt P0CT06); experiment: Inhibition of Magnaporthe grisea Guy 11 isocitrate lyase; set-up: species or system Pyricularia grisea
Sequence of Isocitrate lyase (P0CT06 whole entry): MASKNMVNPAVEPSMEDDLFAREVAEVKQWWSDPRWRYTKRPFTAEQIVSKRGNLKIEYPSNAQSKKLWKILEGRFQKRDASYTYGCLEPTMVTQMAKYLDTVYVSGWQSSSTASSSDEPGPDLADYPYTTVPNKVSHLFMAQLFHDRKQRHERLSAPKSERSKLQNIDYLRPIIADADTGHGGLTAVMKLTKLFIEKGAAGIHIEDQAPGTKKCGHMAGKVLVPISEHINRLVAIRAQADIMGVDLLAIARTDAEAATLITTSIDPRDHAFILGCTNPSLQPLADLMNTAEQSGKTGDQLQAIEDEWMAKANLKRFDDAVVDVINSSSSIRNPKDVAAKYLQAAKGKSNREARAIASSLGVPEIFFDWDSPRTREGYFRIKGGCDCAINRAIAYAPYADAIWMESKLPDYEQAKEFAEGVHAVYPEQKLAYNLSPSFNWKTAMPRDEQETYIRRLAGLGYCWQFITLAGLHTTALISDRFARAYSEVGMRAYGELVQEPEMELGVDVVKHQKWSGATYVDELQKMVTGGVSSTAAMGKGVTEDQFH

Compound	Activity [1]	MIC [2] [µM]	pIC50 [3]	MIC [4] [µM]	pIC50 [5]
CC1=CC[C@H]2C(C)(C)CCC[C@]2(C)[C@H]1C[C@@H](OS(=O)(=O)O)[C@H](C)CCC/C(C)=C/Cc1cc(O)ccc1O [HALISULFATE 1]	Dose-dependent effect	701	3.64	87.7	4.90
O=C(O)CC[N+](=O)[O-]		> 3360	2.80	2940	4.03
CC1=CC[C@H]2C(C)(C)CCC[C@]2(C)[C@H]1C[C@@H](O)[C@H](C)CCC/C(C)=C/Cc1cc(O)ccc1O [HYDROHALISULFATE 1]	Dose-dependent effect	843	3.56	105	4.82
C=C1CCC[C@@H]2[C@@](C)(CCC(CCCc3ccoc3)COS(=O)(=O)O)[C@H](C)CC[C@]12C (some centres undefined) [HALISULFATE 5]	Dose-dependent effect	853	2.94	107	4.17
